Experimental data published in publication PMC11811631 (RSC Chemical Biology, 2025).

Biological target: ScoE (Streptomyces coeruleorubidus, UniProt A0A3B6UEU3)
Assay: LC-MS of pyrazole product […] after tetrazine derivatization
Type: biochemical

| Compound | LC-MS of pyrazole product 8 after tetrazine derivatization (accepted chain length) | LC-MS of pyrazole product 8 after tetrazine derivatization (preferred chain length) |
| --- | --- | --- |
| CCCC(CC(=O)O)NCC(=O)O (centres unmarked) [6 (n = 3), 6 with a propyl group] | substrates that have a short alkyl chain, e.g., a methyl and propyl group | – |
| CC(CC(=O)O)NCC(=O)O (centres unmarked) [6 (n = 1), methyl-6] | – | substrates that have a short alkyl chain, e.g., a methyl and propyl group |
